Source: the CheMixHub viscosity set
± gives the uncertainty stated by the source.

Assay: xn = mol fraction of the nth substance listed

**Q.** What does the source list for `CC#N` + CCCO?
**A.** viscosity (293.15 K, 101.32 kPa, x1 = 0.0214): 2.052 ± 0.016 mPa·s; viscosity (293.15 K, 101.32 kPa, x1 = 0.0926): 1.636 ± 0.013 mPa·s; viscosity (293.15 K, 101.32 kPa, x1 = 0.131): 1.467 ± 0.012 mPa·s; viscosity (293.15 K, 101.32 kPa, x1 = 0.2287): 1.114 ± 0.009 mPa·s; viscosity (293.15 K, 101.32 kPa, x1 = 0.3661): 0.8314 ± 0.007 mPa·s; viscosity (293.15 K, 101.32 kPa, x1 = 0.4647): 0.6986 ± 0.006 mPa·s; viscosity (293.15 K, 101.32 kPa, x1 = 0.5532): 0.5951 ± 0.0053 mPa·s; viscosity (293.15 K, 101.32 kPa, x1 = 0.6088): 0.5441 ± 0.0049 mPa·s; viscosity (293.15 K, 101.32 kPa, x1 = 0.7151): 0.4665 ± 0.0043 mPa·s; viscosity (293.15 K, 101.32 kPa, x1 = 0.8071): 0.4122 ± 0.0039 mPa·s; viscosity (293.15 K, 101.32 kPa, x1 = 0.8778): 0.3835 ± 0.0037 mPa·s; viscosity (298.15 K, 101 kPa, x1 = 0.0674): 1.557 ± 0.02 mPa·s; viscosity (298.15 K, 101 kPa, x1 = 0.1534): 1.243 ± 0.015 mPa·s; viscosity (298.15 K, 101 kPa, x1 = 0.2933): 0.903 ± 0.011 mPa·s; viscosity (298.15 K, 101 kPa, x1 = 0.3889): 0.738 ± 0.009 mPa·s; viscosity (298.15 K, 101 kPa, x1 = 0.4881): 0.622 ± 0.007 mPa·s; viscosity (298.15 K, 101 kPa, x1 = 0.5995): 0.519 ± 0.006 mPa·s; viscosity (298.15 K, 101 kPa, x1 = 0.703): 0.438 ± 0.005 mPa·s; viscosity (298.15 K, 101 kPa, x1 = 0.7951): 0.393 ± 0.005 mPa·s; viscosity (298.15 K, 101 kPa, x1 = 0.909): 0.361 ± 0.004 mPa·s; viscosity (298.15 K, 101.3 kPa, x1 = 0.1388): 1.295 ± 0.031 mPa·s; viscosity (298.15 K, 101.3 kPa, x1 = 0.2787): 0.922 ± 0.023 mPa·s; viscosity (298.15 K, 101.3 kPa, x1 = 0.3856): 0.747 ± 0.019 mPa·s; viscosity (298.15 K, 101.3 kPa, x1 = 0.4939): 0.615 ± 0.016 mPa·s; viscosity (298.15 K, 101.3 kPa, x1 = 0.5945): 0.522 ± 0.014 mPa·s; viscosity (298.15 K, 101.3 kPa, x1 = 0.6887): 0.463 ± 0.013 mPa·s; viscosity (298.15 K, 101.3 kPa, x1 = 0.7735): 0.421 ± 0.012 mPa·s; viscosity (298.15 K, 101.3 kPa, x1 = 0.8539): 0.391 ± 0.012 mPa·s; viscosity (298.15 K, 101.3 kPa, x1 = 0.9294): 0.365 ± 0.011 mPa·s; viscosity (303.15 K, 101 kPa, x1 = 0.0674): 1.267 ± 0.016 mPa·s; viscosity (303.15 K, 101 kPa, x1 = 0.1534): 1.027 ± 0.013 mPa·s; viscosity (303.15 K, 101 kPa, x1 = 0.2933): 0.761 ± 0.009 mPa·s; viscosity (303.15 K, 101 kPa, x1 = 0.3889): 0.631 ± 0.007 mPa·s; viscosity (303.15 K, 101 kPa, x1 = 0.4881): 0.539 ± 0.006 mPa·s; viscosity (303.15 K, 101 kPa, x1 = 0.5995): 0.459 ± 0.005 mPa·s; viscosity (303.15 K, 101 kPa, x1 = 0.703): 0.39 ± 0.005 mPa·s; viscosity (303.15 K, 101 kPa, x1 = 0.7951): 0.354 ± 0.004 mPa·s; viscosity (303.15 K, 101 kPa, x1 = 0.909): 0.329 ± 0.004 mPa·s; viscosity (303.15 K, 101.3 kPa, x1 = 0.1388): 1.166 ± 0.028 mPa·s; viscosity (303.15 K, 101.3 kPa, x1 = 0.2787): 0.842 ± 0.021 mPa·s; viscosity (303.15 K, 101.3 kPa, x1 = 0.3856): 0.695 ± 0.018 mPa·s; viscosity (303.15 K, 101.3 kPa, x1 = 0.4939): 0.574 ± 0.016 mPa·s; viscosity (303.15 K, 101.3 kPa, x1 = 0.5945): 0.498 ± 0.014 mPa·s; viscosity (303.15 K, 101.3 kPa, x1 = 0.6887): 0.436 ± 0.013 mPa·s; viscosity (303.15 K, 101.3 kPa, x1 = 0.7735): 0.399 ± 0.012 mPa·s; viscosity (303.15 K, 101.3 kPa, x1 = 0.8539): 0.374 ± 0.011 mPa·s; viscosity (303.15 K, 101.3 kPa, x1 = 0.9294): 0.352 ± 0.011 mPa·s; viscosity (303.15 K, 101.32 kPa, x1 = 0.0214): 1.623 ± 0.013 mPa·s; viscosity (303.15 K, 101.32 kPa, x1 = 0.0926): 1.329 ± 0.011 mPa·s; viscosity (303.15 K, 101.32 kPa, x1 = 0.131): 1.195 ± 0.01 mPa·s; viscosity (303.15 K, 101.32 kPa, x1 = 0.2287): 0.9375 ± 0.0078 mPa·s; viscosity (303.15 K, 101.32 kPa, x1 = 0.3661): 0.7 ± 0.0061 mPa·s; viscosity (303.15 K, 101.32 kPa, x1 = 0.4647): 0.5975 ± 0.0053 mPa·s; viscosity (303.15 K, 101.32 kPa, x1 = 0.5532): 0.5163 ± 0.0047 mPa·s; viscosity (303.15 K, 101.32 kPa, x1 = 0.6088): 0.4725 ± 0.0044 mPa·s; viscosity (303.15 K, 101.32 kPa, x1 = 0.7151): 0.4106 ± 0.0039 mPa·s; viscosity (303.15 K, 101.32 kPa, x1 = 0.8071): 0.3683 ± 0.0036 mPa·s; viscosity (303.15 K, 101.32 kPa, x1 = 0.8778): 0.345 ± 0.0034 mPa·s; viscosity (308.15 K, 101 kPa, x1 = 0.0674): 1.035 ± 0.013 mPa·s; viscosity (308.15 K, 101 kPa, x1 = 0.1534): 0.845 ± 0.01 mPa·s; viscosity (308.15 K, 101 kPa, x1 = 0.2933): 0.645 ± 0.008 mPa·s; viscosity (308.15 K, 101 kPa, x1 = 0.3889): 0.54 ± 0.006 mPa·s; viscosity (308.15 K, 101 kPa, x1 = 0.4881): 0.469 ± 0.006 mPa·s; viscosity (308.15 K, 101 kPa, x1 = 0.5995): 0.407 ± 0.005 mPa·s; viscosity (308.15 K, 101 kPa, x1 = 0.703): 0.351 ± 0.004 mPa·s; viscosity (308.15 K, 101 kPa, x1 = 0.7951): 0.321 ± 0.004 mPa·s; viscosity (308.15 K, 101 kPa, x1 = 0.909): 0.303 ± 0.004 mPa·s; viscosity (308.15 K, 101.3 kPa, x1 = 0.1388): 1.053 ± 0.026 mPa·s; viscosity (308.15 K, 101.3 kPa, x1 = 0.2787): 0.769 ± 0.02 mPa·s; viscosity (308.15 K, 101.3 kPa, x1 = 0.3856): 0.634 ± 0.017 mPa·s; viscosity (308.15 K, 101.3 kPa, x1 = 0.4939): 0.53 ± 0.015 mPa·s; viscosity (308.15 K, 101.3 kPa, x1 = 0.5945): 0.465 ± 0.013 mPa·s; viscosity (308.15 K, 101.3 kPa, x1 = 0.6887): 0.413 ± 0.012 mPa·s; viscosity (308.15 K, 101.3 kPa, x1 = 0.7735): 0.38 ± 0.011 mPa·s; viscosity (308.15 K, 101.3 kPa, x1 = 0.8539): 0.355 ± 0.011 mPa·s; viscosity (308.15 K, 101.3 kPa, x1 = 0.9294): 0.334 ± 0.01 mPa·s; viscosity (313.15 K, 101.3 kPa, x1 = 0.1388): 0.983 ± 0.024 mPa·s; viscosity (313.15 K, 101.3 kPa, x1 = 0.2787): 0.706 ± 0.018 mPa·s; viscosity (313.15 K, 101.32 kPa, x1 = 0.0214): 1.298 ± 0.011 mPa·s; viscosity (313.15 K, 101.32 kPa, x1 = 0.0926): 1.089 ± 0.009 mPa·s; viscosity (313.15 K, 101.32 kPa, x1 = 0.131): 0.9876 ± 0.0082 mPa·s; viscosity (313.15 K, 101.32 kPa, x1 = 0.2287): 0.7852 ± 0.0067 mPa·s; viscosity (313.15 K, 101.32 kPa, x1 = 0.3661): 0.5983 ± 0.0053 mPa·s; viscosity (313.15 K, 101.32 kPa, x1 = 0.4647): 0.5164 ± 0.0047 mPa·s; viscosity (313.15 K, 101.32 kPa, x1 = 0.5532): 0.4519 ± 0.0042 mPa·s; viscosity (313.15 K, 101.32 kPa, x1 = 0.6088): 0.4163 ± 0.004 mPa·s; viscosity (313.15 K, 101.32 kPa, x1 = 0.7151): 0.3663 ± 0.0036 mPa·s; viscosity (313.15 K, 101.32 kPa, x1 = 0.8071): 0.3317 ± 0.0033 mPa·s; viscosity (313.15 K, 101.32 kPa, x1 = 0.8778): 0.3126 ± 0.0032 mPa·s; viscosity (323.15 K, 101.32 kPa, x1 = 0.0214): 1.052 ± 0.009 mPa·s; viscosity (323.15 K, 101.32 kPa, x1 = 0.0926): 0.8994 ± 0.0076 mPa·s; viscosity (323.15 K, 101.32 kPa, x1 = 0.131): 0.8269 ± 0.0071 mPa·s; viscosity (323.15 K, 101.32 kPa, x1 = 0.2287): 0.665 ± 0.0058 mPa·s; viscosity (323.15 K, 101.32 kPa, x1 = 0.3661): 0.5179 ± 0.0047 mPa·s; viscosity (323.15 K, 101.32 kPa, x1 = 0.4647): 0.451 ± 0.0042 mPa·s; viscosity (323.15 K, 101.32 kPa, x1 = 0.5532): 0.3984 ± 0.0038 mPa·s; viscosity (323.15 K, 101.32 kPa, x1 = 0.6088): 0.3701 ± 0.0036 mPa·s; viscosity (323.15 K, 101.32 kPa, x1 = 0.7151): 0.3284 ± 0.0033 mPa·s; viscosity (323.15 K, 101.32 kPa, x1 = 0.8071): 0.3003 ± 0.0031 mPa·s; viscosity (323.15 K, 101.32 kPa, x1 = 0.8778): 0.2849 ± 0.003 mPa·s
